Assay [1] relates to focal adhesion molecules in cells that express endogenous TM4SF5. The assay can be described thus: Focal adhesion molecule activation in cells endogenously expressing TM4SF5. It counts as cell-based. The note with it: FIG. 12. On the procedure:
(§1) Whole cell lysates from cells under diverse experimental conditions were prepared, as described in the literature (Lee, S. Y. et al., Focal adhesion and actin organization by a cross-talk of TM4SF5 with integrin α2 are regulated by serum treatment, Exp Cell Res, 312, pp. 2983-99, 2006). For example, cells were subjected to electroporation (950 μF, 250 V) with a control GFP, wild-type focal adhesion kinase (FAK), paxillin, p130Cas cDNA. One day after electroporation, cells were treated with TA (20 μM) for the indicated periods. Cells cultured normally or treated with TA at different concentrations for the indicated periods were harvested using RIPA buffer. Control or tumor tissues from nude mice were frozen immediately after surgery using liquid N2. Tissues in the liquid N2 was homogenized using a mortar and pestle, and extracted using 0.1% SDS containing RIPA buffer. Standard Western blots of lysates were performed by using antibody against phospho-Y^397, Y^407, Y^577, Y^861, Y^925 FAK (BioSource International, Inc., Camarillo, Calif.), phospho-Y^416Src, c-Src, p15^INK4B, p16^INK4A (Santa Cruz Biotech., Santa Cruz, Calif.), FAK, p130Cas, paxillin, pY^118paxillin, active caspase-3 (BD Transduct. Lab., San Jose, Calif.), α-tubulin (Sigma, St Louis, Mo.), phopsho-S^473, or T^308Akt, Akt, phospho-Erk1/2, Erk1/2 (Cell Signaling Tech., Danvers, Mass.), and TM4SF5 (homemade).

Assay [2] deals with TM4SF5-expressing SNU449T16 cells tumors. The assay can be described thus: TM4SF5-mediated tumor formation in nude mice. Type of assay: in vivo. The note with it: for tumor volumes decreased to: 30 days. The method, then:
4-5 week old female nude mice (BALB/cAnNCrjBgi-nu) were purchased from Orient. Co. Ltd. (Seongnam, Korea). The mice were housed in a specific pathogen-free room under controlled temperature and humidity. All animal procedures were performed in accordance with the procedures in Seoul National University Laboratory Animal Maintenance Manual and with IRB agreement. Mice aged 5-6 weeks were injected subcutaneously with 5×10^6 viable SNU449Cp or SNU449T16 cells. Tumor volumes were measured with a caliper and calculated using the following Mathematical Formula 1. When the tumor volume reached 200 mm^3, mice were injected intraperitoneally with 3 mg/kg or 30 mg/kg (body weight) of tiarellic acid (TA) every other day for 30 days. (Width×Length^2)/2 [Mathematical Formula 1]
Width: minimal diameter (mm)
Length: maximal diameter (mm)
To evaluate whether tiarellic acid (TA) administration might interfere with TM4SF5 mediated tumor formation in nude mice, the following experiment was performed as described in the literature (Lee S-A et al., TM4SF5-mediated transmodulation between cytosolic p27Kip1 and Rho GTPases and epithelial-mesenchymal transition cause loss of contact inhibition, Cancer Cell, 2007).

The test system of the next assay is TM4SF5. The assay can be described thus: Effect of TA treatment on TM4SF5 expression of P, Cp, Tp and T16 cells. Type of assay: cell-based.
In assay [3] the test system is focal adhesion molecules in TM4SF5-expressing SNU449Tp cell line. The assay can be described thus: Immunoblot of focal adhesion molecule expression and activation, SNU449Tp. Type of assay: cell-based. Conditions: FIG. 11. The method, then:
as §1, with “(homemade). […]” for “(homemade).”

The subject of assay [4] is cells with endogenous TM4SF5 expression. The assay can be described thus: Cell number of cell lines with endogenous TM4SF5 expression after TA treatment. Conditions: TA 5 or 20 μM. Type of assay: cell-based. On the procedure:
(§2) After virus infection, pooled stable clones (control SNU449Cp and TM4SF5-expressing SNU449Tp cell clones) and single cell-driven stable clones (TM4SF5-expressing SNU449T16) were prepared by infecting SNU449 hepatocytes (Korean Cell Bank, Seoul, Korea) with retrovirus for empty pLNCX or pLNCX with TM4SF5. Parental and control cells (Cp) were maintained in RPMI-1640/10% FBS/0.25 μg/ml gentamycin (Calbiochem, San Diego, Calif.) without or with 200 μg/ml G418 (A.G. Scientific Inc., San Diego, Calif.), respectively, at 37° C. and 5% CO2. Cells endogenously expressing TM4SF5 or cells endogenously expressing no TM4SF5 (Korean Cell Bank) were maintained in either DMEM-H or RPMI-1640 media with 10% FBS (JBI Inc., Daegu, Korea).
(§3) Next, to confirm that tiarellic acid (TA) is specific to TM4SF5, cytotoxicity of tiarellic acid (TA) was examined using cells with endogenous TM4SF5 expression. RT-PCR was performed using a primer set described in the following Table 1 under the conditions including 30 cycles of 94° C. for 30 sec, 55° C. for 30 sec, and 72° C. for 30 sec. Diverse cell lines were treated with tiarellic acid (TA) at a concentration of 5 or 20 μM.

Assay [5] deals with TM4SF5-expressing cells (SNU449Tp, SNU449T16). The assay can be described thus: Degree of adhesion on fibronectin-precoated dishes, TM4SF5-expressing cells. Type of assay: cell-based. Conditions: 20 μM TA 24 hr, reseeded on fibronectin 1 hr. On the procedure:
Thus, it could be thought that TA treatment induces anoikis of TM4SF5-expressing cells. To examine whether TA treatment affected cellular adhesion, the following procedure was performed prior to analysis of TA-meditated cell death, as described in the literature (Yang, X. et al., Palmitoylation supports assembly and function of integrin-tetraspanin complexes, J Cell Biol, 167, pp. 1231-40, 2004).
Cells were treated with 20 μM TA for 24 hr, and the floating cells were collected and reseeded on fibronectin-precoated dishes for 1 hr before determination of the degree of adhesion.

Assay [6] has as its system TM4SF5-null cells including Hek293 and COST fibroblast, MDA-MB-453 breast, SNU638 and SNU668 stomach, and SNU398 liver epithelial cells. The assay can be described thus: Cell number of diverse cell lines without TM4SF5 after TA treatment. The note with it: TA 5 or 20 μM. Type of assay: cell-based. On the procedure: as §2, §3

Consider `C=C(C)C1CC[C@]2(C)CC[C@]3(C(=O)O)C(CCC4[C@@]5(C)CC[C@H](O)[C@@](C)(CO)C5CC[C@]43C)C12` (stereo partly shown) [tiarellic acid (TA), 3,23-dihydroxy-20(29)-lupen-27-oic acid], for which the “inhibitory effects on focal adhesion molecule activation” value in assay [1] is on record as “observed”. Also, the “tumor volumes decreased to” value stood at 46.0% in assay [2] (3 mg/kg body weight i.p. every other day) and 22.1% in assay [2] (30 mg/kg body weight i.p. every other day). Further, in assay [2] (intraperitoneally every other day for 30 days, established tumors ~200 mm^3), the TM4SF5-mediated tumor formation result is listed as “decreased”. The “expression level of TM4SF5” value in the assay with TM4SF5 was “without affecting”. In assay [3], the “TM4SF5-dependent inhibitory effects on focal adhesion molecules” value is given as “inhibitory effects”. Besides, the pErk1/2 result in assay [3] is reported as “slightly increased”. Besides, the “growth of cells with endogenous TM4SF5 expression” value in assay [4] is “growth suppression”. For the same molecule, the adhesion entry in assay [5] is given as “significantly reduced adhesions”. In addition, in assay [6], the “proliferation of TM4SF5-null cells” value was “not affected”.

Source of the values: patent US8299049B2, “Compositions comprising an extract of Tiarella polyphylla or compounds isolated therefrom for preventing and treating cancer diseases” (Korea Institute of Bioscience and Biotechnology, priority 2007, dated 2012).
